Legend:
Type in all cases: in vivo, human
[1] = system: moderate to severe idiopathic RLS subjects; experiment: Clinical Global Impressions Scale (CGI): severity, change and treatment effect
Description: (§1) The study multi-centre, randomized, double-blind, parallel-groups, placebo-controlled study with 2 treatment arms, oral HPPD inhibitor (2-(2-nitro-4-trifluoromethylbenzoyl)-1,3-cyclohexanedione) and placebo. Subjects were randomized to either treatment with an HPPD inhibitor or placebo in a 2:1 ratio. The subjects were dosed with 4 mg on day 1, and 2 mg/day on days 2-14. The total duration of treatment with study drug for each subject was 14 consecutive days ending at the day of the final sleep lab assessment (Day 14), with a follow-up examination 29 days after Baseline.
(§2) The objective of this exploratory study was to show proof-of-concept of therapy with an exemplary HPPD inhibitor in moderate to severe idiopathic RLS subjects.
(§3) Efficacy parameters were changes between Baseline and end of treatment in objective measures of Periodic Limb Movements (PLM) and sleep efficiency and in investigator evaluations of severity of RLS symptoms as well as in subject's report on severity of RLS symptoms, sleep disturbances and depressive feelings. Parameters measured included: • Periodic Limb Movement (PLM) Index, defined as the number of PLM events occurring during time-in-bed (PLMI/h TIB) • Periodic Limb Movements during Sleep Index, defined as the number of PLMs per hour of total sleep time (PLMSI/h TST) • PLM arousal index, defined as the number of PLM with arousals per hour of total sleep time (PLMSAI/h TST) • Periodic Limb Movements during wakefulness index, defined as the number of PLMs per hour occurring during wakefulness within time-in-bed (PLMWI/h TIB) • Sleep Efficiency (SE) expressed as the percentage total sleep time (TST) of total time in bed (TIB) • Total Sleep Time (TST) • Total number of arousals per TST • Sleep latency • Restless Legs Scale—6 items (RLS-6) (Kohnen et al, 2004) • IRLS total score change from start of treatment to end • Time to requiring rescue medication (defined as time to dropout due to the need of rescue medication for intolerable RLS symptoms) • Physicians' Global Impression, rated by the Clinical Global Impressions Scale (CGI): severity, change and treatment effect • CGI responders defined as the proportion of subjects who improved “much” or “very much” on CGI item “change”. • Patients' Global Impression (PGI) scale Item 1 (efficacy) • Medical Outcomes Study (MOS) Sleep Scale • Beck Depression Inventory (BDI) • In addition, a patient diary was to be completed between days 8 and 15 • HPPD inhibitor plasma concentrations at Baseline, end of treatment and follow-up • Tyrosine plasma concentration at Baseline, end of treatment and follow-up.

[2] = system: moderate to severe idiopathic RLS subjects; experiment: IRLS scale, placebo-controlled study in RLS subjects
Description: as §1, §2, §3

[3] = system: moderate to severe idiopathic RLS subjects; experiment: Beck Depression Inventory (BDI)
Description: as §1, §2
Efficacy parameters were changes between Baseline and end of treatment in objective measures of Periodic Limb Movements (PLM) and sleep efficiency and in investigator evaluations of severity of RLS symptoms as well as in subject's report on severity of RLS symptoms, sleep disturbances and depressive feelings. […]

[4] = system: Subjects with RLS; experiment: Medical Outcomes Study (MOS) Sleep Scale, placebo-controlled study in RLS subjects
Description: as §1, §3
Subjects with RLS received either placebo (7 subjects) or an HPPD inhibitor (13 subjects) given as 4 mg on day 1, then 2 mg per day for days 2-14 of the trial. Various parameters relevant to RLS were monitored during the course of treatment, in particular the quality of their sleep patterns using a standard assessment scale (Medical Outcomes Study (MOS) Sleep Scale). Individuals were asked to complete a standard evaluation of their ‘normal’ sleep experience at the start of the trial (Baseline) and again at the end of treatment (EoT), with the various parameters scored according to the attached document.
The MOS Sleep Scale is a comprehensive subject completed sleep questionnaire consisting of 12 items (Hays and Stewart, 1992; Hays et al., 2005). Each item measures a unique aspect or characteristic of sleep. Overall, the MOS Sleep Scale measures the following:
All items, except for item 2, were transformed in a ‘0-100’ scale.
For the analysis of the MOS sleep scale, the following subscales were determined as means of the involved items (in part, after reversing the ratings in the ‘0-100’ scale, denoted by (R) in the item sequence):
Subjects self-reported the length of time it took for them to fall asleep and the average number of hours of sleep each night. Scores for all other items range from 1 (all of the time) to 6 (none of the time).
The MOS Sleep Scale was completed at Baseline (Visit 2) and final examination (Visit 3).

[5] = EoT Visit, M-ITT, none of the placebo patients
[6] = EoT, PPS n = 13, 4 mg day 1, 2 mg/day days 2-14
[7] = EoT, PPS n = 13, item 2 raw scores

SMILES: O=C1CCCC(=O)C1C(=O)c1ccc(C(F)(F)F)cc1[N+](=O)[O-] [HPPD Inhibitor, 2-(2-nitro-4-trifluoromethylbenzoyl)-1,3-cyclohexanedione]
- CGI severity item, improvement vs placebo ([1]; EoT): larger improvement
- CGI severity: subjects not at all or only borderline ill, percentage ([1]; EoT, M-ITT): 21.4%
- CGI severity: subjects not at all or only borderline ill, number ([1]; EoT, M-ITT, none on placebo): 3 subjects
- CGI severity: subjects with moderate to severe illness, number ([1]; EoT, M-ITT, placebo 5): 7 subjects
- CGI severity: subjects with moderate to severe illness, percentage ([1]; EoT, M-ITT, placebo 71.4%): 50.0%
- CGI change of condition: subjects very much or much improved (responder analysis), number ([1]; M-ITT, placebo 2): 7 subjects
- CGI change of condition: subjects very much or much improved (responder analysis), percentage ([1]; M-ITT, placebo 28.6%): 50.0%
- CGI treatment effect rated as very good or moderate, number of subjects ([1]; placebo 3): 8 subjects
- CGI treatment effect rated as very good or moderate, percentage of subjects ([1]; placebo 42.9%): 57.1%
- IRLS severity score: difference drug-placebo, LS mean ([2]; Baseline to EoT, M-ITT, 95%-CI: −9.75, 2.84, p=0.2636): −3.46
- IRLS total score, difference vs placebo ([2]; Baseline to EoT, not seen for IRLS impact score): numerical differences between Baseline and EoT favouring
- subjects reporting only mild or moderate RLS symptoms (IRLS scale), number ([2]; EoT, M-ITT, placebo 2): 9 subjects
- subjects reporting only mild or moderate RLS symptoms (IRLS scale), percentage ([2]; EoT, M-ITT, placebo 28.6%): 64.3%
- depressive symptoms, mean differences between Baseline and EoT vs placebo [3]: larger reduction of depressive symptoms
- patients reporting optimal sleep (7-8 hours), number [4, 5]: 5 patients
- patients reporting optimal sleep (7-8 hours), percentage [4, 5]: 35.7%
- patients reporting optimal sleep (7-8 hours), number ([4]; EoT Visit, PPS): 4 patients
- MOS Short of Breath Scale, absolute, Median ([4]; EoT, PPS n = 13): 0.0
- MOS Short of Breath Scale, absolute, Range ([4]; EoT, PPS n = 13): 0.0-40.0
- MOS Sleep Adequacy Scale, absolute, Median ([4]; EoT, PPS n = 13): 50.0
- MOS Sleep Adequacy Scale, absolute, Range ([4]; EoT, PPS n = 13): 0.0-80.0
- MOS Sleep Problems Index I, absolute, Median ([4]; EoT, PPS n = 13): 33.3
- MOS Sleep Problems Index I, absolute, Range ([4]; EoT, PPS n = 13): 10.0-70.0
- MOS Sleep Problems Index II, absolute, Median ([4]; EoT, PPS n = 13): 32.8
- MOS Sleep Problems Index II, absolute, Range ([4]; EoT, PPS n = 13): 11.1-74.4
- MOS Snoring Scale, absolute, Median ([4]; EoT, PPS n = 13): 20.0
- MOS Snoring Scale, absolute, Range ([4]; EoT, PPS n = 13): 0.0-40.0
- MOS Somnolence Scale, absolute, Median ([4]; EoT, PPS n = 13): 13.3
- MOS Somnolence Scale, absolute, Range ([4]; EoT, PPS n = 13): 6.7-66.7
- MOS Short of Breath Scale, absolute, M ± SD [4, 6]: 9.2 ± 15.5
- MOS Sleep Disturbance Scale, absolute, Median [4, 6]: 43.8
- MOS Sleep Disturbance Scale, absolute, Range [4, 6]: 10.0-72.5
- MOS Sleep Problems Index I, absolute, M ± SD [4, 6]: 36.7 ± 16.3
- MOS Sleep Problems Index II, absolute, M ± SD [4, 6]: 37.9 ± 16.8
- MOS Snoring Scale, absolute, M ± SD [4, 6]: 20.0 ± 16.3
- MOS Somnolence Scale, absolute, M ± SD [4, 6]: 24.6 ± 19.7
- MOS Sleep Disturbance Scale, absolute, M ± SD ([4]; EoT, PPS n = 13, 4 mg day 1, 2 mg/day days 2-14, 0-100 scale, higher = stronger sleep problems): 41.8 ± 16.7
- MOS Sleep Adequacy Scale, absolute, M ± SD ([4]; EoT, PPS n = 13, 4 mg day 1, 2 mg/day days 2-14, higher values = better): 46.9 ± 25.9
- MOS Sleep Quantity, absolute, Median [4, 7]: 6.0 h
- MOS Sleep Quantity, absolute, Range [4, 7]: 4.0 to 8.0 h
- MOS Sleep Quantity, absolute, M ± SD ([4]; EoT, PPS n = 13, item 2 raw scores, 4 mg day 1, 2 mg/day days 2-14): 6.1 ± 1.0 h
- MOS sleep adequacy: difference HPPD inhibitor—placebo, LS mean ([4]; M-ITT, 95%-CI: 1.30, 52.64, p=0.0405 two-sided from ANCOVA): 26.97

Source: patent US20100160295A1, “TREATMENT OF RESTLESS LEG SYNDROME AND SLEEP DISORDERS” (SYNOSIA THERAPEUTICS, priority 2008, published 2010)
